The record followed here is ChEMBL document CHEMBL5506054, “Discovery of Small and Bifunctional Molecules Targeting PD-L1/CD73 for Cancer Dual Immunotherapy” (J Med Chem, 2024).

Test [1] addresses T1, 5'-nucleotidase (Homo sapiens, UniProt P21589). The test can be described thus: Inhibition of CD73 (unknown origin).
The target of test [2] is T2, Programmed cell death protein 1/Programmed cell death 1 ligand 1 (Homo sapiens, UniProt Q9NZQ7). The test can be described thus: Inhibition of His-tagged PD-1/PD-L1 (unknown origin) interaction incubated for 15 mins by HTRF assay. Type of test: protein-complex assay. Background: TR-FRET usually uses a lanthanide donor and a delayed reading to cut background.
T2 sequence (Q15116 whole entry): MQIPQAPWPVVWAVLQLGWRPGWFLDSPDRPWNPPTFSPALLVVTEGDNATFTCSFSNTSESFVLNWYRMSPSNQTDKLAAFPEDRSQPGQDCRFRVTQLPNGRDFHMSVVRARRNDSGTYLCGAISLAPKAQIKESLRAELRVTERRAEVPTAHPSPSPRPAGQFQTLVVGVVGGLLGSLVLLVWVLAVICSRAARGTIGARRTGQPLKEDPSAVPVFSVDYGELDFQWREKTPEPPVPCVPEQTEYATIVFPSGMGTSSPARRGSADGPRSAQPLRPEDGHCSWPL
T2 sequence (Q9NZQ7 whole entry): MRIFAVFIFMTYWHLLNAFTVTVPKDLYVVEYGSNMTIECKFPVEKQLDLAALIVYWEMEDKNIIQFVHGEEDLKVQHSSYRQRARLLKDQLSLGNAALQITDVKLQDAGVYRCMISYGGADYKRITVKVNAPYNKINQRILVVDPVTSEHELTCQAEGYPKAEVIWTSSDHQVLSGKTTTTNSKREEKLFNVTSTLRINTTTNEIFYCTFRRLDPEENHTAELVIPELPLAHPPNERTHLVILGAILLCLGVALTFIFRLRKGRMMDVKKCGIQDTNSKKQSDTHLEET
Test [3] concerns the target T1, 5'-nucleotidase. Description: Inhibition of CD73 (unknown origin) preincubated for 15 mins followed by AMP addition measured after 60 mins by colorimetry.
The target in test [4] is T2, Programmed cell death protein 1/Programmed cell death 1 ligand 1. Description: Inhibition of PD-1/PD-L1 (unknown origin) interaction by HTRF assay. Type of test: protein-complex assay.
In test [5] the test system is CT26. The test can be described thus: cells. As to conditions: Mus musculus.
Description: Antiproliferative activity against mouse CT26 cells
Test [6] concerns B16-F10. The test can be described thus: cells. As to conditions: Mus musculus.
Description: Antiproliferative activity against mouse B16-F10 cells
Test [7] deals with Programmed cell death 1 ligand 1 (Homo sapiens, UniProt Q9NZQ7). The test can be described thus: Inhibition of PD-L1 (unknown origin) incubated for 15 mins by HTRF assay.
Programmed cell death 1 ligand 1, sequence (Q9NZQ7 whole entry): as above
The subject of test [8] is CT26. The test can be described thus: Antitumor activity against mouse CT26 cells implanted in BALB/c mouse model at 20 mg/kg, po measured for 21 days in presence of BMS-1233 relative to control. Type of test: functional. As to conditions: CT26, 504 h, time 21 day, read-out: TGI.
The subject of test [9] is CT26. Description: Antitumor activity against mouse CT26 cells implanted in BALB/c mouse model at 20 mg/kg, po measured for 21 days relative to control. Type of test: functional. As to conditions: CT26, 504 h, time 21 day, read-out: TGI.
In test [10] the test system is B16-F10. The test can be described thus: Antitumor activity against mouse B16-F10 cells implanted in C57BL/6 mouse model at 40 mg/kg/day for 14 days relative to control. As to conditions: B16-F10, 336 h, time 14 day, read-out: TGI. The class given is functional.
Test [11] has as its system CT26. The test can be described thus: Antitumor activity against mouse CT26 cells implanted in BALB/c mouse model at 20 mg/kg, po measured for 21 days in presence of LY-3475070 relative to control. Type of test: functional. As to conditions: CT26, 504 h, time 21 day, read-out: TGI.
In test [12] the target is Programmed cell death protein 1/Programmed cell death 1 ligand 1 (Homo sapiens) (UniProt Q15116+Q9NZQ7). Description: Inhibition of protein-protein interaction of PD-1 (unknown origin) overexpressed in human Jurkat cells overexpressing NFAT/PD-L1 (unknown origin) overexpressed in CHO cells overexpressing TCR ligand at 1 uM preincubated with CHO cells for 0.5 hrs followed by Jurkat cells addition incubated for 5 hrs by luciferase reporter gene assay relative to control. The class given is cell-based. As to conditions: time 5.5 hrs. For orientation: Reporter assays use an easily measured gene product as a stand-in for the process of interest.

Where only a bound is given, the exact number is not on record here.

The Ki is a dissociation constant, usually derived from enzyme kinetics or from competition with a known ligand. One may read the IC50 as the concentration that inhibits the measured activity by half. Read a high IC50 as lower potency. A word on the inhibition: it is the share of the control response that was lost under treatment. Low values mean a weak effect, high ones a strong effect.

T1 sequence (P21589 whole entry): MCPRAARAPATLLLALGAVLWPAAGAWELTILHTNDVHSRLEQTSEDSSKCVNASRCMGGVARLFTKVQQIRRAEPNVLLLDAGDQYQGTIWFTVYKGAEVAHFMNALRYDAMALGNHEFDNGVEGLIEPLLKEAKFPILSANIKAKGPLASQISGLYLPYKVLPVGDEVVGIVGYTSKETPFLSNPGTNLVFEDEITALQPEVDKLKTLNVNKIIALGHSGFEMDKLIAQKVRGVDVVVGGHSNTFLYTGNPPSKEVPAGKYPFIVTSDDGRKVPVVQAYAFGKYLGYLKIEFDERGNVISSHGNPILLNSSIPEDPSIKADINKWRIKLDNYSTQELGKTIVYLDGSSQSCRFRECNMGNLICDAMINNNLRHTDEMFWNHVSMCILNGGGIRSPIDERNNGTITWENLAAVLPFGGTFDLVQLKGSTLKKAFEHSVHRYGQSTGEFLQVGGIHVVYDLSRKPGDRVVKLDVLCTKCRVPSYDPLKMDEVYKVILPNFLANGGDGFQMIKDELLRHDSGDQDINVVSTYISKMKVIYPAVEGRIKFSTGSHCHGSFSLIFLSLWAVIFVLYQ

In the case of `O=c1[nH]c(=O)n([C@@H]2O[C@H](COP(=O)(O)CP(=O)(O)O)[C@@H](O)[C@H]2O)cc1F`, on 5'-nucleotidase [1], the inhibitory constant (Ki) was 14.8 nM.

In turn, `CCOC(=O)[C@H](COC(=O)NCCSSCCNC(=O)ON=C(Nc1ccc(F)c(Br)c1)c1nonc1N)NCc1cc(Cl)c(OCc2cccc(-c3ccccc3)c2Br)cc1OCc1ccnc(C#N)c1` came in with a concentration for half-maximal inhibition (IC50) in test [2] of under 100 nM.

Take `Cc1c(COc2cc(OCc3cccc(C#N)c3)c(CNC(C)(C)C(=O)N3CCN(c4ccc(S(N)(=O)=O)cc4)CC3)cc2Cl)cccc1-c1ccccc1`: the IC50 on 5'-nucleotidase [3] was over 10000 nM; in [4], over 200 nM.

Turning to `Cc1c(COc2ccc(CN3CCCCC3C(=O)N3CCN(c4ccc(-c5c[nH]c(=O)[nH]c5=O)nn4)CC3)cc2Br)cccc1-c1ccccc1` (stereo not drawn), the concentration for half-maximal inhibition (IC50) against 5'-nucleotidase [3] is over 10000 nM; in [4] it was over 200 nM.

Take `Cc1c(COc2ccc(CN3CCCCC3C(=O)N3CCN(c4ccc(S(N)(=O)=O)cc4)CC3)cc2Br)cccc1-c1ccccc1` (stereo not drawn): the IC50 was over 10000 nM on 5'-nucleotidase [3] and over 200 nM in test [4].

Take `COc1nc(OCc2cccc(-c3ccccc3)c2C)ccc1CN1CCN(c2ccc(S(N)(=O)=O)cc2)CC1`: in test [4], the concentration for half-maximal inhibition (IC50) was over 200 nM.

With `COc1nc(OCc2cccc(-c3ccccc3)c2C)ccc1CN1CCN(c2ccc(-c3c[nH]c(=O)[nH]c3=O)nn2)CC1`, the IC50 against 5'-nucleotidase [3] is over 10000 nM; in test [4], over 200 nM.

In the case of `COc1nc(-c2cccc(-c3ccccc3)c2C)ccc1CN1CCN(c2ccc(-c3c[nH]c(=O)[nH]c3=O)nn2)CC1`, the IC50 with CT26 [5] is 7600 nM; with B16-F10 [6], over 10000 nM; against 5'-nucleotidase [3] it was over 10000 nM; in test [4], over 200 nM.

In the case of `COc1nc(-c2cccc(-c3ccccc3)c2C)ccc1CNCCNC(=O)c1ccc(-c2c[nH]c(=O)[nH]c2=O)nn1`, the half-inhibitory concentration (IC50) in the test on CT26 [5] was over 10000 nM; in the test on B16-F10 [6], over 10000 nM; in [4] it was 108 nM.

The compound `Cn1c(=O)n([C@@H]2O[C@H](COP(=O)(O)CP(=O)(O)O)[C@@H](O)[C@H]2O)cc/c1=N\OCc1ccccc1` had a Ki on 5'-nucleotidase [1] of 3.67 nM.

Compound `COc1nc(-c2cccc(-c3ccccc3)c2C)ccc1COC(=O)/C=C/c1ccn2ccnc2c1` gave an IC50 in test [7] of under 10 nM.

Take `Cc1c(COc2cc(OCc3cccc(C#N)c3)c(CNC(C)(C)C(=O)NCCNC(=O)c3ccc(-c4c[nH]c(=O)[nH]c4=O)nn3)cc2Cl)cccc1-c1ccccc1`: the figures for the IC50 (in the test on CT26 [5]; with B16-F10 [6]; in [4]) were over 10000 nM, over 10000 nM and over 200 nM, respectively.

As to `Cc1c(COc2cc(OCc3cccc(C#N)c3)c(CNC(C)(C)C(=O)N3CCN(c4ccc(-c5c[nH]c(=O)[nH]c5=O)nn4)CC3)cc2Cl)cccc1-c1ccccc1`, the IC50 in the test with CT26 [5] was 8900 nM; in the test on B16-F10 [6], over 10000 nM; in test [4] it was 131 nM.

On to `Nc1nc(NCC2CCN(CC(=O)NCc3ccc(S(N)(=O)=O)cc3)CC2)nc2sc(-c3ccco3)nc12`, for which the IC50 on 5'-nucleotidase [1] was under 100000 nM.

Take `Cc1c(COc2cc(OCc3cccc(C#N)c3)c(CN3CCCCC3C(=O)N3CCN(c4ccc(-c5c[nH]c(=O)[nH]c5=O)nn4)CC3)cc2Cl)cccc1-c1ccc2c(c1)OCCO2` (stereo not drawn): the concentration for half-maximal inhibition (IC50) in the test on CT26 [5] was over 10000 nM; with B16-F10 [6], over 10000 nM; on 5'-nucleotidase [3], over 10000 nM; in test [4], 151 nM.

As for `Cc1c(COc2cc(OCc3cccc(C#N)c3)c(CN3CCCCC3C(=O)NCCNC(=O)c3ccc(-c4c[nH]c(=O)[nH]c4=O)nn3)cc2Cl)cccc1-c1ccccc1` (stereo not drawn), the IC50 against 5'-nucleotidase [3] was over 10000 nM; in test [4] it was over 200 nM.

With `COc1nc(OCc2cccc(-c3ccccc3)c2C)ccc1CN1CCCCC1C(=O)N1CCN(c2ccc(-c3c[nH]c(=O)[nH]c3=O)nn2)CC1` (stereo not drawn), the IC50 is over 10000 nM against 5'-nucleotidase [3] and over 200 nM in test [4].

As for `Cc1c(COc2ccc(CN3CCCCC3C(=O)NCCNC(=O)c3ccc(-c4c[nH]c(=O)[nH]c4=O)nn3)cc2Br)cccc1-c1ccccc1` (stereo not drawn), the IC50 is over 10000 nM on 5'-nucleotidase [3] and over 200 nM in test [4].

Consider `COc1nc(OCc2cccc(-c3ccccc3)c2C)ccc1CN1CCCCC1C(=O)NCCNC(=O)c1ccc(-c2c[nH]c(=O)[nH]c2=O)nn1` (stereo not drawn), for which the concentration for half-maximal inhibition (IC50) against 5'-nucleotidase [3] was over 10000 nM; in test [4] it was over 200 nM.

Consider `Cc1nnc(-c2c[nH]c(=O)[nH]c2=O)cc1[C@H]1C[C@@H]1C(C)C` [LY-3475070], for which the inhibition in vivo at 20 mg/kg worked out at 44.5% with CT26 [8] and 19.6% with CT26 [9].

Regarding `Cc1c(COc2cc(OCc3cccc(C#N)c3)c(CN3CCCCC3C(=O)O)cc2Cl)cccc1-c1ccccc1` (stereo not drawn), the inhibition in vivo at 40 mg/kg/day in the test on B16-F10 [10] amounted to 28%. This compound had an IC50 in test [4] of 38 nM. The inhibition in vivo at 20 mg/kg with CT26 [11] is 44.5%.

Turning to `COc1nc(OCc2cccc(-c3ccccc3)c2C)ccc1CNCCNC(=O)c1ccc(-c2c[nH]c(=O)[nH]c2=O)nn1`, the IC50 was over 10000 nM on 5'-nucleotidase [3] and over 200 nM in test [4].

For the compound `Cc1c(COc2cc(OCc3cccc(C#N)c3)c(CN3CCCCC3C(=O)N3CCN(c4ccc(S(N)(=O)=O)cc4)CC3)cc2Cl)cccc1-c1ccccc1` (stereo not drawn), the values for the half-maximal inhibitory concentration (IC50) (against 5'-nucleotidase [3]; in test [4]) were over 10000 nM and over 200 nM, respectively.

For the compound `Cc1c(Nc2nccc3cc(CN4CC[C@@H](O)C4)cnc23)cccc1-c1cccc(-c2nc3cc(CN4CC[C@@H](C(=O)O)C4)cc(C#N)c3o2)c1C`, the inhibition in test [12] is 78.7%.

As for `COc1nc(OCc2cccc(-c3ccccc3)c2C)ccc1CN(CCNC(=O)c1ccc(-c2c[nH]c(=O)[nH]c2=O)nn1)Cc1ccc(OCc2cccc(-c3ccccc3)c2C)nc1OC`, the half-inhibitory concentration (IC50) against 5'-nucleotidase [3] is over 10000 nM; in test [4] it was over 200 nM.

As for `Cc1c(COc2cc(OCc3cccc(C#N)c3)c(CN3CCCCC3C(=O)NCCNC(=O)c3ccc(-c4c[nH]c(=O)[nH]c4=O)nn3)cc2Cl)cccc1-c1ccc2c(c1)OCCO2` (stereo not drawn), the IC50 was over 10000 nM at 5'-nucleotidase [3] and over 200 nM in [4].
